Reference: US9181248B2, “[1,2,4]triazolopyridines and their use as phosphodiesterase inhibitors” (LEO Pharma A/S, priority 2011, dated 2015)
pIC50: −log10 of the molar value.

Experiments:
[1] = Keratinocyte stability (KC) assay; type: in vitro ADME; details: pH 7.4; plated human keratinocytes, 1 μM compound, 37° C.; average of 2 to 4 tests; read-out: KC assay, half-life T½
Protocol: Incubations of test compounds in DMSO, diluted with growing medium, pH ˜7.4, at 1 μM were carried out with plated human keratinocytes. The percentage of organic solvent in the incubations was 0.5%. The incubations were performed at 37° C. with aliquots taken at 0, 60, 120, 240 and 1440 minutes, and reactions were terminated by addition of methanol containing analytical internal standard (IS). The results were expressed as half-life (T½) in minutes calculated from the rate constant (k) (min^−1) of test compound depletion.

[2] = Human whole blood (WB) assay; type: in vitro ADME; details: pH 7.4, 1 μM compound, 37° C., average of 2 to 4 tests, read-out: WB assay, half-life T½
Protocol: Incubations of test compounds in DMSO, diluted with phosphate buffer, pH 7.4, at 1 μM were carried out with human whole blood. The percentage of organic solvent in the incubations was 1%. The incubations were performed at 37° C. with aliquots taken at 0, 15, 30, 60 and 120 minutes, and reactions were terminated by addition of methanol containing analytical internal standard (IS). The results were expressed as half-life (T½) in minutes calculated from the rate constant (k) (min^−1) of test compound depletion.

[3] = tested on: TNF-α release in human peripheral blood mononuclear cells (PBMC); experiment: TNF-α release; details: 18 h, read-out: TNF-α release assay, IC50
Excerpt: Results are expressed as IC50 values (nM) calculated from inhibition curves using as positive controls the secretion in LPS stimulated wells and as negative controls the secretion in unstimulated cells.

SMILES | half-life at 1 μM [1] [min] | half-life at 1 μM [2] [min] | pIC50 [3]
CC[C@H](C)OC(=O)C1(c2nc3c(OC)ccc(-c4ccc5c(c4)COC5=O)n3n2)CC1 [Compound 1, [(1S)-1-Methylpropyl]1-[8-methoxy-5-(1-oxo-3H-isobenzofuran-5-yl)-[1,2,4]triazolo-[1,5-a]pyridin-2-yl]cyclopropanecarboxylate] | > 720 | 10.7 | 7.89
CC[C@@H](C)OC(=O)C1(c2nc3c(OC)ccc(-c4ccc5c(c4)COC5=O)n3n2)CC1 [Compound 2, [(1R)-1-Methylpropyl]1-[8-methoxy-5-(1-oxo-3H-isobenzofuran-5-yl)-[1,2,4]triazolo-[1,5-a]pyridin-2-yl]cyclopropanecarboxylate] | > 720 | 12.6 | 7.80
COc1ccc(-c2ccc3c(c2)COC3=O)n2nc(C3(C(=O)OCC(C)C)CC3)nc12 [Compound 3, [2-Methylpropyl]1-[8-methoxy-5-(1-oxo-3H-isobenzofuran-5-yl)-[1,2,4]triazolo[1,5-a]pyridin-2-yl]cyclopropanecarboxylate] | > 720 | 16.6 | 
COc1ccc(-c2ccc3c(c2)COC3=O)n2nc(C3(C(=O)OC(C)(C)C)CC3)nc12 [Compound 4, Tert-butyl 1-[8-methoxy-5-(1-oxo-3H-isobenzofuran-5-yl)-[1,2,4]triazolo[1,5-a]pyridin-2-yl]cyclopropanecarboxylate] | > 720 | < 11.2 | 7.82
